Measured values: patent publication US20230357272A1, “OCTAHYDROPYRAZINODIAZANAPHTHYRIDINE DIONE COMPOUNDS” (MEDSHINE DISCOVERY INC., priority 2020, published 2023)
Read-outs that look alike come from different tables or passages of the source.

Experiments:
MIA-PA-CA-2 cells = test: Anti-proliferation experiment of MIA-PA-CA-2 cells (CellTiter-Glo); type: cell-based; details: Homo sapiens, MIA PaCa-2, 72 h, 3 days
Procedure: DMEM culture medium, fetal bovine serum purchased from Biosera, and horse serum purchased from Gibco. CellTiter-Glo (chemiluminescence detection reagent for cell viability) reagent purchased from Promega. MIA-PA-CA-2 cell line purchased from Nanjing CoBioer Biotechnology Co., Ltd. EnVision multi-label analyzer (PerkinElmer).
MIA-PA-CA-2 cells were seeded in a white 96-well plate with 80 μL of cell suspension per well, which contained 1000 MIA-PA-CA-2 cells. The cell plate was incubated overnight in a carbon dioxide incubator.
(§1) The compounds to be tested were diluted 5-fold with a row gun to the eighth concentration, that is, from 2 mM to 26 nM, and a double-duplication experiment was set up. 78 μL of culture medium was added to a middle plate, and then 2 μL of gradient diluted compound per well was transferred to the middle plate according to the corresponding position. After being thoroughly mixed, 20 μL per well was transferred to the cell plate. The concentration range of the compound transferred to the cell plate was 10 μM to 0.13 nM. The cell plate was placed in the carbon dioxide incubator for 3 days. Another cell plate was prepared, and the signal value was read as the maximum value (Max value in the equation below) on the day of administration to participate in data analysis. 25 μL of cell viability chemiluminescence detection reagent was added to each well of the cell plate, and incubated at room temperature for 10 minutes to stabilize the luminescence signal. A multi-label analyzer was used for reading.
Using the equation (Sample−Min)/(Max−Min)*100% to convert the raw data into inhibition rate, and the value of IC50 might be obtained by curve fitting with four parameters (obtained by “log (inhibitor)/response—Variable scope” mode in GraphPad Prism software). Table 2 provides the inhibitory activity of the compounds of the present disclosure on the proliferation of MIA-PA-CA-2 cells.

NCI-H358 cells = test: Anti-proliferation experiment of H358 cells (CellTiter-Glo); type: cell-based; details: Homo sapiens, 120 h, 5 days
Procedure: RPMI-1640 culture medium, penicillin/streptomycin antibiotics purchased from Wisent, and fetal bovine serum purchased from Biosera. CellTiter-Glo (chemiluminescence detection reagent for cell viability) reagent purchased from Promega. NCI-H358 cell line purchased from the Cell Bank of the Chinese Academy of Sciences. Nivo multi-label analyzer (PerkinElmer).
NCI-H358 cells were seeded in a white 96-well plate with 80 μL of cell suspension per well, which contained 4000 NCI-H358 cells. The cell plate was incubated overnight in a carbon dioxide incubator.
as §1, with “3-fold” for “5-fold”, “ninth” for “eighth”, “304” for “26”, “1.52” for “0.13”, “5” for “3”
25 μL of cell viability chemiluminescence detection reagent was added to each well of the cell plate, and incubated at room temperature for 10 minutes to stabilize the luminescence signal. A multi-label analyzer was used for reading.
Using the equation (Sample−Min)/(Max−Min)*100% to convert the raw data into inhibition rate, and the value of IC50 might be obtained by curve fitting with four parameters (obtained by “log (inhibitor) vs. response—Variable slope” mode in GraphPad Prism). Table 1 provides the inhibitory activity of the compounds of the present disclosure on the proliferation of NCI-H358 cells.

[1] = Pharmacokinetic study of female BALB/c nude mice (plasma and tumor); type: in vivo; details: for concentration at 1 h / concentration at 4 h / concentration at 8 h: oral, read-out: Mean drug concentration; for Kp: tumor/plasma, read-out: AUC ratio = tumor AUC0-last/plasma AUC0-last
Procedure: This experiment was a pharmacokinetic study of female BALB/c nude mice after oral administration of compound 1D. The experiment was divided into three groups, which were intragastrically administered with 1, 3 and 10 mg/kg of compound 1D, respectively. Animals in each group were divided into two batches, and plasma and tumor tissue samples were collected at different time points after administration. The collection time points of the plasma samples from each group of animals were: 0.083, 0.25, 0.5, 1, 2, 4, 6 and 8 hours, respectively, and the collection time points of tumor tissue samples were 1, 4 and 8 hours, respectively. At the corresponding sample collection time point after administration, plasma was collected, and tumor tissue was dissected and weighed. The plasma was stored at −80° C., and the tumor tissue was stored in a cryopreservation tube and quickly frozen in liquid nitrogen. Cross-collected plasma samples were used to calculate the mean concentration of the corresponding time points in each group for the calculation of PK parameters.

[2] = female, BALB/c nude, mouse, plasma, 1 mg/kg intragastric
[3] = female, BALB/c nude, mouse, plasma, 3 mg/kg intragastric
[4] = female, BALB/c nude, mouse, plasma, 10 mg/kg intragastric
[5] = female, BALB/c nude, mouse, tumor, 1 mg/kg intragastric
[6] = female, BALB/c nude, mouse, tumor, 3 mg/kg intragastric
[7] = female, BALB/c nude, mouse, tumor, 10 mg/kg intragastric
[8] = female, BALB/c nude, mouse, po, plasma, 1 mg/kg intragastric
[9] = female, BALB/c nude, mouse, po, plasma, 3 mg/kg intragastric
[10] = female, BALB/c nude, mouse, po, plasma, 10 mg/kg intragastric
[11] = female, BALB/c nude, mouse, po, tumor, 3 mg/kg intragastric
[12] = female, BALB/c nude, mouse, po, tumor, 10 mg/kg intragastric

## C=CC(=O)N1CCN2c3c(c(=O)n(-c4c(C)ccnc4C(C)C)c4c(=O)n(-c5c(N)c(Cl)cc(Cl)c5F)c(C(F)(F)F)cc34)OCC[C@H]2C1 [Compound 1D]
MIA-PA-CA-2 cells
  IC50: 8 nM
NCI-H358 cells
  IC50: 0.917 nM
[1]; [2]
  concentration at 1 h: 0.0225 µM
  concentration at 4 h: 0.00358 µM
  concentration at 8 h: 0.00122 µM
[1]; [3]
  concentration at 1 h: 0.157 µM
  concentration at 4 h: 0.0115 µM
  concentration at 8 h: 0.00413 µM
[1]; [4]
  concentration at 1 h: 0.285 µM
  concentration at 4 h: 0.0548 µM
  concentration at 8 h: 0.0306 µM
[1]; [5]
  concentration at 1 h: 0.0104 µM
  concentration at 4 h: 0.00204 µM
[1]; [6]
  concentration at 1 h: 0.136 µM
  concentration at 4 h: 0.00978 µM
  concentration at 8 h: 0.00278 µM
[1]; [7]
  concentration at 1 h: 0.203 µM
  concentration at 4 h: 0.0379 µM
  concentration at 8 h: 0.0208 µM
[1]; [8]
  AUC(0-t): 54.4 nM·h
  Tmax: 0.25 h
  half-life: 2.57 h
[1]; female, BALB/c nude, mouse, po, plasma, 1 mg/kg intragastric, read-out: Cmax
  Cmax: 0.0408 µM
[1]; [9]
  AUC(0-t): 287 nM·h
  Tmax: 0.5 h
  half-life: 2.2 h
[1]; female, BALB/c nude, mouse, po, plasma, 3 mg/kg intragastric, read-out: Cmax
  Cmax: 0.191 µM
[1]; [10]
  AUC(0-t): 840 nM·h
  Tmax: 0.25 h
  half-life: 1.99 h
[1]; female, BALB/c nude, mouse, po, plasma, 10 mg/kg intragastric, read-out: Cmax
  Cmax: 0.348 µM
[1]; [11]
  Tmax: 1 h
  half-life: 1.28 h
[1]; [12]
  Tmax: 1 h
  half-life: 2.19 h
[1]; female, BALB/c nude, mouse, po, 3 mg/kg intragastric
  Kp: 0.815
[1]; female, BALB/c nude, mouse, po, 10 mg/kg intragastric
  Kp: 0.608
[1]; plasma, 1 mg/kg intragastric
  Tlast: 8.00 h
[1]; plasma, 3 mg/kg intragastric
  Tlast: 8.00 h
[1]; plasma, 10 mg/kg intragastric
  Tlast: 8.00 h
[1]; tumor, 3 mg/kg intragastric
  AUC0-last: 234 nmol·h/kg
  Cmax: 136 nmol/kg
  Tlast: 8.00 h
[1]; tumor, 10 mg/kg intragastric
  AUC0-last: 511 nmol·h/kg
  Cmax: 203 nmol/kg
  Tlast: 8.00 h
